Measurements reported in patent US20080226565A1, “Anticariogenic Proteins & Peptides & Saccharides” (priority 2004, published 2008).

What was measured:
[1] = test system: anaerobes isolated from the oral cavity; test: Susceptibility (MIC), agar dilution, anaerobes from the oral cavity; format: cell-based, anaerobic bacteria; conditions: for activity against anaerobes: explored range 0.2 to 3.5 mg/ml
Experimental: (§1) The investigations included more than hundred strains isolated from the oral cavity: : anaerobes, microaerophilic bacteria, aerobes, Streptococcus spp. and yeast like fungi. The microorganisms were isolated from saliva, mucosal membrane, gingival pockets and caries decay. The susceptibility (MIC) of bacteria and yeastlike fungi were determined by means of plate dilution technique in agar.
(§2) The investigated samples were dissolved in sterile distilled water (immediately before the experiment) to obtain the following concentrations: 3.5, 1.7, 0.8, 0.4 and 0.2 mg/ml and were added into appropriate agar. The plates were inoculated using a Steers multipoint inoculator. Inoculum contained 10^6 CFU/spot. In each experimental series, the growth of strains on the culture medium without the compounds investigated was checked. The concentration at which no macroscopic growth of the microbes was observed on the medium was regarded as the lowest concentration, inhibiting the growth of microbes (MIC). The examinations of the susceptibility of microbes to the peptides were carried out twice.
(§3) Anaerobes. The susceptibility of bacteria was determined by means of the agar dilution methods with Brucella agar supplemented with 5% defibrinated sheep's blood, menadione and hemin. Sample solutions with concentrations from of 3.5-0.2 mg/ml were added into agar. The agar plate without investigated samples was included as a bacterial growth control. The inoculum of 10^6 CFU/ml was applied to the agar plates with Steers replicator. Incubation was performed for 48 hrs at 37° C. (310° K) in anaerobic jars containing a mixture of 10% CO2, 10% H2 and 80% N2, in the presence of palladium catalyst and indicator of anaerobiosis. Microaerophilic bacteria. The susceptibility of bacteria was determined by means of the agar dilution methods with Brucella agar supplemented with 5% sheep's blood. Samples solutions with concentrations from of 3.5- 0.2 mg/ml were added into agar. The agar plate without investigated samples was included as a bacterial growth control. The inoculum of 10^6 CFU/ml was applied to the agar plates with Steers replicator. The incubation was performed at 37° C. in anaerobic jars with Campy Pak (bio Merieux) for 48 hours. Streptococcus spp. The susceptibility of bacteria was determined by means of the agar dilution methods with Mueller-Hinton agar supplemented with 5% sheep's blood. Samples solutions with concentrations from of 3.5- 0.2 mg/ml were added into agar. The agar plate without investigated samples was included as a bacterial growth control. The inoculum of 10^6 CFU/ml was applied to the agar plates with Steers replicator. Incubation was performed for 24 hrs at 37° C. (310° K) in anaerobic jars containing a mixture of 10% CO2 and 90% N2. Aerobes. The susceptibility to investigated samples was determined by means of the plate dilution technique in Mueller-Hinton agar. Samples solutions with concentrations from of 3.5- 0.2 mg/ml were added into agar. The agar plate without investigated samples was included as a bacterial growth control. The inoculum of 10^6 CFU/ml was applied to the agar plates with Steers replicator. Plates were incubated for 24 hrs in 37° C. under aerobic conditions. Yeast like fungi. The susceptibility of fungi to investigated samples was determined by means of the plate dilution technique in Sabouraud's agar. Samples solutions with concentrations from of 3.5- 0.2 mg/ml were added into agar. […]

[2] = Determination of the PF-value: Knoop micro hardness of tooth samples coated with product, then saliva and acetic acid (in-vitro); design: species or system human
From the text: The capacity to protect teeth against caries can be measured with a technique well known in the art (U.S. Pat. No. 5,279,814). Demineralization with acid, decreases the hardness of the tooth surface. The hardness can be quantified indirectly by measuring the depth of penetration of a needle in the surface (measurement of micro hardness). With this procedure, so called “Knoop” method, the needle is penetrating the surface under the pressure of constant weight and leaves a mark on the surface that allows the calculation of the depth of penetration. The more the tooth is suffering from demineralization, the softer its surface will get and the larger the depth of penetration will be (Knoop F., Peters C. G., Emerson W. B., A Sensitive Pyramidal Diamond Tool for Identation Measurments, J. Res. Natn. Bur. Stand. 23, 39-61 (1939).
The procedure includes the determination of the hardness of a human tooth sample with the Knoop method. Subsequently, the tooth is treated with an experimental protecting product outside the oral cavity.
It is cleaned softly with a paper towel until the coating is invisible.
Subsequently the tooth sample is submerged in a batch of human saliva in order to simulate the conditions in the oral cavity. After removal from the saliva batch (after 30 min.) it is treated with acid over a constant time period of 30 min. at 37° C. The acid is washed away, the tooth is dried on air and the hardness is measured again. The change in hardness (delta P in μm) is obtained by comparing with the hardness of the tooth before treatment. This experiment is repeated on other tooth samples. The effect of acid on unprotected teeth is obtained by carrying out the same procedure but without the use of an experimental protecting product (delta Pa). The protecting capacity (“PF” protection factor) of an experimental protecting compound can be defined as: […]
The ability of a product to protect teeth (PF-value) is determined with the Knoop method. A tooth sample, size 3×3×3 mm is cut from a human tooth and embedded into polymerizing resin in such a way that the surface of the tooth sample appears on the surface of the (resin) cube after the resin has become solid. The surface of the tooth is mechanically polished with rotating silicon carbide abrasive paper (Struers P1200-P2400-P4000) and the micro hardness of the enamel is determined with a Knoop diamant needle (Leitz-Wetzlar;
microdurometer “Durimet”; weight 50 gr; penetration-time: 30 seconds (Collys et al., J. Dent. Res. 1990; 69: 458-462)).
The penetration leaves a mark on the tooth surface, which is related to the depth of penetration (μm) and which can be analyzed under the microscope. […] The determination of the depth of penetration is repeated six times on each of the tooth samples and the average value is calculated. In order to determine the effect of acid on the hardness of the surface, use is made of an acetic acid buffer from Merck (pH 5; 0.1N). One drop of acid is positioned on the enamel for a period of 30 minutes at 37° C. The sample is cleaned with demineralized water and dried. The hardness is measured again according to the method of Knoop. This procedure is repeated 4 times, which means that the sample has been subjected to acid for a total period of two hours.
A graph (Y: penetration depth μm; X: 5 treatment stages) can be made on the basis of 5 average values (each of them based on six measurement), one obtained before treatment with acid, and the other 4 obtained after each of the 4 treatment-stages with acid. A logaritmic regressionline is calculated.

[3] = test system: aerobes isolated from the oral cavity; test: Susceptibility (MIC), agar dilution, aerobes from the oral cavity; format: cell-based, aerobic bacteria; conditions: for activity against aerobes: explored range 0.2 to 3.5 mg/ml
Experimental: as §1, §2
as §3, with “control. […]” for “control. The inoculum of 10^6 CFU/ml was applied to the agar plates with Steers replicator. Incubation was performed for 24 hrs at 37° C. (310° K) in anaerobic jars containing a mixture of 10% CO2 and 90% N2. Aerobes.”, “agar. […]” for “agar. Samples solutions with concentrations from of 3.5- 0.2 mg/ml were added into agar. The agar plate without investigated samples was included as a bacterial growth control. The inoculum of 10^6 CFU/ml was applied to the agar plates with Steers replicator. Plates were incubated for 24 hrs in 37° C. under aerobic conditions. Yeast like fungi.”, “agar.” for “agar. Samples solutions with concentrations from of 3.5- 0.2 mg/ml were added into agar.”

| Substance | activity against anaerobes [1] | PF factor ([2]; 7.8% product/water w/w) | activity against aerobes [3] | anaerobes harvested from the oral cavity that are inhibited ([1]; at 0.2 to 0.4 mg/ml, 17 from 24 species) | mic-value (minimum inhibitory concentration) ([1]; gram-negative anaerobes, often, incl. Prevotella nigrescens, Porphyromonas gingivalis, Fusobacterium nucleatum) | PF factor ([2]; 3.6% product/water w/w, with CaCl2.2H2O and KH2PO4) | aerobes harvested from the oral cavity that are inhibited ([3]; at 0.2 to 0.4 mg/ml, 2 from 17) | PF factor ([2]; 1.5% product/water w/w) |
| --- | --- | --- | --- | --- | --- | --- | --- | --- |
| casein phosphopeptide epsilon-polylysine copolymer [(CPP x elys)n] | less effective | 94 | not active |  |  |  |  |  |
| Epsilon-polylysine (elys; e-polylysine) [Product 6] |  |  |  | 71% | ≤ 200 mg/L | 70 | 12% |  |
| bisphosphonylated epsilon-polylysine [bisphosphonylated e-polylysine] | good activity |  | not active |  |  |  |  | 99 |
